Key:
Assay type in all cases: biochemical
JAK3 = molecular target: T1, JAK3 (Homo sapiens, UniProt P52333); assay: JAK3 enzymatic kinase inhibition assay; conditions: read-out: Kinase inhibitory activities given in IC50 (nM), JAK3
T1 sequence (P52333 1-1124): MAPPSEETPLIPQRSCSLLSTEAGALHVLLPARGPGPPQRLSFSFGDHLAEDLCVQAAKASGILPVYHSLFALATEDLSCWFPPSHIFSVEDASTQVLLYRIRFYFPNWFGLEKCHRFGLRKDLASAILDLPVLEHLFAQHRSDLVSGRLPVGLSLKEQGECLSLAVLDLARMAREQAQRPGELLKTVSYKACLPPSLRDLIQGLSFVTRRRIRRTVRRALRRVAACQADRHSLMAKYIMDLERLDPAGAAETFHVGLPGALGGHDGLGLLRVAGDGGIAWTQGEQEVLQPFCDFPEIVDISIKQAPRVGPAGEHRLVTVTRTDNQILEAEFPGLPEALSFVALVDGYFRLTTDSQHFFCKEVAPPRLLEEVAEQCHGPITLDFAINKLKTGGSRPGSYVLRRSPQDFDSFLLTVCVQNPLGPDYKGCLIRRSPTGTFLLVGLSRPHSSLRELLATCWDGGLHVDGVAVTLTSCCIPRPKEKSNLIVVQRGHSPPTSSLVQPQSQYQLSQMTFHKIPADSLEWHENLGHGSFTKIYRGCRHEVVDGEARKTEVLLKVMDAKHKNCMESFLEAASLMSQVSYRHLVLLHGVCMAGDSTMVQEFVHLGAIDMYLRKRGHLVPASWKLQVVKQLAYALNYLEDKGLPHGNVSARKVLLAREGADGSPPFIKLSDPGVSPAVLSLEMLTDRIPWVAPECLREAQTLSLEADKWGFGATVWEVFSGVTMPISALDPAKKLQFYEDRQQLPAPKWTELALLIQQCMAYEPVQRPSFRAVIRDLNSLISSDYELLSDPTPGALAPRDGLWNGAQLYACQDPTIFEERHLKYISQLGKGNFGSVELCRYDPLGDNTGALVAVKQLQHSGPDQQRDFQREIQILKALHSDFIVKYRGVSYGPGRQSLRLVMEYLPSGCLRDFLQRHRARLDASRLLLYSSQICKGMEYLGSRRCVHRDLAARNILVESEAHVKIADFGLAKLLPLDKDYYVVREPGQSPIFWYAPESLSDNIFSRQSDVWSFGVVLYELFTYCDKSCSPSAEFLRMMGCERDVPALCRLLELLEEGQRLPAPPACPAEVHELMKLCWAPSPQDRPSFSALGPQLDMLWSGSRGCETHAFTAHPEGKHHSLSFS

JAK1 = JAK1 (Homo sapiens, UniProt P23458); assay: JAK1 enzymatic kinase inhibition assay; conditions: read-out: Kinase inhibitory activities given in IC50 (nM), JAK1
Chain of JAK1 (P23458 whole entry): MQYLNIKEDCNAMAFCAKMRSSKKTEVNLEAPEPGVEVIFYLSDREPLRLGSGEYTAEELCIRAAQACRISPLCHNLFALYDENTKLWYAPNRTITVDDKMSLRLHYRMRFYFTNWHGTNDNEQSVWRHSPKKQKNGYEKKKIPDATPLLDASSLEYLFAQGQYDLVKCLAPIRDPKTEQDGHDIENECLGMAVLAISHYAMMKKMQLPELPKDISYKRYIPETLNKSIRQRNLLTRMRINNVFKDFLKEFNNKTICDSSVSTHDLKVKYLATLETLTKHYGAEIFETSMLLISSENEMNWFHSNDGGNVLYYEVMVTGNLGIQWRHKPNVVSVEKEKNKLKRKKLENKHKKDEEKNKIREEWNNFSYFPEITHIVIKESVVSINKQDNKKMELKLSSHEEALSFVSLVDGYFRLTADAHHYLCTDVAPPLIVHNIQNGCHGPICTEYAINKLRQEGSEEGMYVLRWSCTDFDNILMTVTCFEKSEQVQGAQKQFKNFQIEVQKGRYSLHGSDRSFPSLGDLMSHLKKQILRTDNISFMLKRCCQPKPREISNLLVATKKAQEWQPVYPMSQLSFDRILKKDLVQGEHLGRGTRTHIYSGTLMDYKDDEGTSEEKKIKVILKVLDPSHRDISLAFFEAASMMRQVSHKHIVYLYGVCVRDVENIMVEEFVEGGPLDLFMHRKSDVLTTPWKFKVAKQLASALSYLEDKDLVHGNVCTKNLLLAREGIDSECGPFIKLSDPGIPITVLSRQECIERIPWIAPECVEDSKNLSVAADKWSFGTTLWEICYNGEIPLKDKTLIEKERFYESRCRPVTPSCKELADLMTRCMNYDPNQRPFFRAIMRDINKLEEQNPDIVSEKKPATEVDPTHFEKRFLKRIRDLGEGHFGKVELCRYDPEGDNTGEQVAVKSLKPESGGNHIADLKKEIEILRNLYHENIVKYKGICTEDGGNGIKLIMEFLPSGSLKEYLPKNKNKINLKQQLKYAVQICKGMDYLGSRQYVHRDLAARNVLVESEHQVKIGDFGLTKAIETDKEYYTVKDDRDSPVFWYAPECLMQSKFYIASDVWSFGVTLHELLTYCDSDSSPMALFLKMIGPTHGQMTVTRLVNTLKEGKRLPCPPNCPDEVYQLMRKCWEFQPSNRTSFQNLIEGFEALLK

TYK2 = TYK2 (Homo sapiens, UniProt P29597); assay: TYK2 enzymatic kinase inhibition assay; conditions: read-out: Kinase inhibitory activities given in IC50 (nM), TYK2
Chain of TYK2 (P29597 whole entry): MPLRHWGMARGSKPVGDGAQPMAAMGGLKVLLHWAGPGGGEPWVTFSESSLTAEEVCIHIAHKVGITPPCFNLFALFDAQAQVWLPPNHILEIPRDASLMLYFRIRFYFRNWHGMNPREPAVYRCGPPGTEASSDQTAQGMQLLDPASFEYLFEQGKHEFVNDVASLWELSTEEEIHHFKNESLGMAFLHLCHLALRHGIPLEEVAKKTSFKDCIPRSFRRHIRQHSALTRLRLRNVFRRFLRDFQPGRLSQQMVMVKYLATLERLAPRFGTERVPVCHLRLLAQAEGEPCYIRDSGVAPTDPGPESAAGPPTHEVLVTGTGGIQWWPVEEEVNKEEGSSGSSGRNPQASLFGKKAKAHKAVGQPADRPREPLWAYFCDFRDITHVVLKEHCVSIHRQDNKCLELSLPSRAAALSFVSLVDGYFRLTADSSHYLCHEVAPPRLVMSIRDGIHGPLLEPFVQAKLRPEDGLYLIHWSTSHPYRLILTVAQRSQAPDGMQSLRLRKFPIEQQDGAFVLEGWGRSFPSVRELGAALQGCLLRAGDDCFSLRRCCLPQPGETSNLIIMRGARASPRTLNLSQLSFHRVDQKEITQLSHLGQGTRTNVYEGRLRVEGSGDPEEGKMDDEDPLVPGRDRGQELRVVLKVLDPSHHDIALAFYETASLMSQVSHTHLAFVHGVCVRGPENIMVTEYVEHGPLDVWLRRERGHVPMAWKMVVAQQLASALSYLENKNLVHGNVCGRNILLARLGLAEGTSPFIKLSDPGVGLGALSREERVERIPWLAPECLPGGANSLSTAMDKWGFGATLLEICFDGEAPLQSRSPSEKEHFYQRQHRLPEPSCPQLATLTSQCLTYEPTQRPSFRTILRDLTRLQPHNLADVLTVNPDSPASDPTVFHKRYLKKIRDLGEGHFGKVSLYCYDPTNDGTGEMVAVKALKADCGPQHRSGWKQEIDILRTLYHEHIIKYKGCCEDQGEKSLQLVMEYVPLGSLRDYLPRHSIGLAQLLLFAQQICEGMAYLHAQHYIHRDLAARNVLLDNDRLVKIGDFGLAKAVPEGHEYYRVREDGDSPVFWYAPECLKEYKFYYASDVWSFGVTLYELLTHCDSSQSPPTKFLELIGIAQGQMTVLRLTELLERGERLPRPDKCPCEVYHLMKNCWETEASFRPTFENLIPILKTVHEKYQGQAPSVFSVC

JAK2 = JAK2 (Homo sapiens, UniProt O60674); assay: JAK2 enzymatic kinase inhibition assay; conditions: read-out: Kinase inhibitory activities given in IC50 (nM), JAK2
Chain of JAK2 (O60674 whole entry): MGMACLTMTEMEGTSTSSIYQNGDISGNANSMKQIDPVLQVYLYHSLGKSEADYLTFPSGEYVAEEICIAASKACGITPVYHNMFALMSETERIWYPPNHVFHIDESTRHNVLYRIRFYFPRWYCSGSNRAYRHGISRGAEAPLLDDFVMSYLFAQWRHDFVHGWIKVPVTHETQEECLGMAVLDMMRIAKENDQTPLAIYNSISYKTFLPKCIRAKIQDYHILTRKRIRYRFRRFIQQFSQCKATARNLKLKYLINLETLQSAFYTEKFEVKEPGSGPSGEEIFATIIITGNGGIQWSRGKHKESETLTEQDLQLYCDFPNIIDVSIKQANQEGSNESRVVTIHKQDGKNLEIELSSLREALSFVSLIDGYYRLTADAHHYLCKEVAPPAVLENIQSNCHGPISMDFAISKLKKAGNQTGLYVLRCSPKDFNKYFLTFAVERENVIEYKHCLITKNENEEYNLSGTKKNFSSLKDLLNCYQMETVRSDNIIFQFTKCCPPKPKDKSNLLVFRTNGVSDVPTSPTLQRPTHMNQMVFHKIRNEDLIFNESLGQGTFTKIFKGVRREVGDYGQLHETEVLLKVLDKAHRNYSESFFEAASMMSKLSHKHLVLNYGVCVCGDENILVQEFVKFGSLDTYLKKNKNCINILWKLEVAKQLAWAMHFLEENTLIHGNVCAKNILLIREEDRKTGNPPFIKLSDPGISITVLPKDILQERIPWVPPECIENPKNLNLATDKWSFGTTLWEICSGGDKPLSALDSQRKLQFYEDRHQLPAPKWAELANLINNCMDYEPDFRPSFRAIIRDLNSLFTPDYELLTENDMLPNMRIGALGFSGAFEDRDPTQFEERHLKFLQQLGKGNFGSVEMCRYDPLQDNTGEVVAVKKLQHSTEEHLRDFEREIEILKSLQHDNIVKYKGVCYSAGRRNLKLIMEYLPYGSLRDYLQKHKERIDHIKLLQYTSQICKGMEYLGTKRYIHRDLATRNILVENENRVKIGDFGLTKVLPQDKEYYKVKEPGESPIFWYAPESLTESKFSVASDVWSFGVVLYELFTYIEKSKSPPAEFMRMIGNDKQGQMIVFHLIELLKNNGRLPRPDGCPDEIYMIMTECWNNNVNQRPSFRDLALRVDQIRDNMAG

Row | IC50 (JAK3) | IC50 (JAK1) | IC50 (TYK2) | IC50 (JAK2) | SMILES
1 | 29 nM | 1 nM | 26 nM | 13 nM | N#CCC(=O)N1CCC23CCN(c4ncnc5[nH]ccc45)C2CCC13 (centres unmarked) [KMC420, 3-(6-(7H-pyrrolo[2,3-d]pyrimidin-4-yl)octahydrocyclopenta[2,1-b:5,1-b′]dipyrrol-3(3aH)-yl)-3-oxopropanenitrile]
2 | 9 nM | 30 nM | 183 nM | 53 nM | C=CC(=O)N1CCC23CCN(c4ncnc5[nH]ccc45)C2CCC13 (centres unmarked) [KMC423, 1-(6-(7H-pyrrolo[2,3-d]pyrimidin-4-yl)octahydrocyclopenta[2,1-b:5,1-b′]dipyrrol-3(3aH)-yl)prop-2-en-1-one]
